| melting point | Compound |
| --- | --- |
| 235 °C | NCC(O)C(=O)O (stereo unspecified) |
| 180 °C | CCOC(=O)C1=C(C)NC(C)=C(C(=O)OCC)C1 |
| 189 to 190 °C | Cc1cc(C)c(C2(C)CC(C(=NO)c3cc4ccccc4o3)C2)c(C)c1 (stereo unspecified) |
| 70 °C | COc1ccc(C2(C)C=C(C)N=N2)cc1 (stereo unspecified) |
| 60 °C | CCC(=O)c1ccc2ccccc2c1 |
| -30 °C | C=C[Si](OCCOC)(OCCOC)OCCOC |
| 117 to 121 °C | CSC(=CC(=C(C#N)C#N)c1ccccc1)SC |
| 132 to 134 °C | COC(=O)c1ccc(C(=O)OC)c(N)c1 |
| 150 to 152 °C | CCOc1cc2c(cc1OCC)C(=S)NCC2 |
| 317 °C | CC(=O)Nc1ccc(C2=NN(c3ccccc3)C(=O)/C2=C/C2C(=O)N(c3ccccc3)N=C2c2ccc(NC(C)=O)cc2)cc1 (stereo unspecified) |
| 107 °C | O=[N+]([O-])/C(=C/c1ccccc1[N+](=O)[O-])c1ccccc1 |
| 85 °C | Oc1ccccc1CCc1ccccc1 |
| 111 °C | c1ccc2c(c1)CCc1ccccc1C1(OCCO1)C21OCCO1 |
| 257 °C | c1cncc(-c2nc3ccccc3[nH]2)c1 |
| 67.5 °C | CCC1=CN(S(=O)(=O)c2ccc(C)cc2)C[C@@H]1CCc1cccc(C(=O)OC)c1 |
| -26.8 °C | COc1ccccc1Cl |
| 168 to 171 °C | Cc1ccc(C(=O)[C@@H]2CCCC[C@H]2C(=O)O)cc1 (relative stereo) |
| 165 °C | O=C(O)c1cc(F)c(F)cc1[N+](=O)[O-] |
| 157 to 158 °C | Cc1cc(C(=O)NN)[nH]n1 |
| 230 °C | C1=C\c2ccc(cc2)-c2ccccc2-c2ccc/1cc2 |
| 136 to 138 °C | OCCN1CCNC1=S |

| melting point | Compound |
| --- | --- |
| 48 to 49.5 °C | CCOC(=O)c1cc(-c2ccccc2)on1 |
| 88 to 89 °C | CCSc1nnn[nH]1 |
| 105 °C | O=Cc1cc(Br)ccc1O |
| 120 to 122 °C | C/C=C/C1Nn2c(nnc2-c2cccnc2)S1 (stereo unspecified) |
| 229 to 232 °C | O=C(O)c1cc(-c2cccs2)[nH]n1 |
| 161 to 163 °C | NC(=S)c1ccc[nH]1 |
| 42 to 44 °C | CCC(=O)N1C(=O)OC[C@@H]1Cc1ccccc1 |
| 100 °C | CC12CCC(C(COC(=O)c3ccc([N+](=O)[O-])cc3)C1)C2(C)C (stereo unspecified) |
| 163 °C | c1cc2c3c(ccc2c2c1CC2)CC3 |
| 168 to 169 °C | O=c1cc(-c2ccc(F)cc2)oc(-c2ccc(F)cc2)c1 |
| 313 °C | O=C1c2ccccc2C(=O)c2c1cc(O)c(O)c2O |
| 107 °C | c1ccc2c(c1)cnc1ccccc12 |
| 146 °C | CCCCCCCOc1ccc(C(=O)O)cc1 |
| 144 °C | Cc1c(C)c2ccccc2c2ccccc12 |
| 176 °C | CCN(CC)CC(=O)OCC(=O)C1(O)CCC2C3CCC4=CC(=O)C=CC4(C)C3C(O)CC21C (stereo unspecified) |
| 63 °C | O=C(O)CCCOc1ccccc1 |
| 170 °C | CCOC(=O)c1nn(-c2ccc(C)cc2)c(C)c1C(=O)c1noc(-c2ccc(Br)cc2)c1S(=O)(=O)c1ccccc1 |
| 10 °C | CCCCCCCCCCCCCCCC(OC)OC |
| 98 °C | O=S(=O)(O)CS(=O)(=O)O |
| 178 to 179 °C | CCCc1ccc(NC(C)=O)cc1O |

| Compound | melting point |
| --- | --- |
| CCN(CC)C(=O)C(C)Oc1cccc2ccccc12 (stereo unspecified) | 75 °C |
| C=CCC1(CC(C)C)C(=O)NC(=O)NC1=O | 138 °C |
| O=[N+]([O-])CC(O)C(Cl)(Cl)Cl (stereo unspecified) | 45.5 °C |
| CC(C)NC(C)C | -61 °C |
| CC(=O)C(c1ccccc1)c1ccccc1 | 61 °C |
| CCC1(OC(C)=O)CCC2(C)C(CCC3C4CCC(=O)C4(C)CCC32)C1 (stereo unspecified) | 150 to 152 °C |
| COP(=S)(OC)Oc1nc(Cl)c(Cl)cc1Cl | 46 °C |
| CCC1(c2ccc(N)cc2)CCC(=O)NC1=O (stereo unspecified) | 150 °C |
| Clc1ccc(-c2c(Cl)cc(Cl)cc2Cl)cc1 | 65 °C |
| FC(F)OCC(F)(F)C(F)(F)F | -107 °C |

From a melting point compilation (Tetko et al.)
